# Laboratory results reported in PMC10303271, “Synthesis and Receptor Binding Studies of α5 GABAAR Selective Novel Imidazodiazepines Targeted for Psychiatric and Cognitive Disorders” (Molecules, 2023).
# Where two headings read alike, the source gives them in different places.
# Assays:
# 5-HT7A = target: T1, 5-HT7A (Homo sapiens, UniProt P34969); assay: PDSP primary binding 5-HT7A; conditions: 1.5 h; primary binding, 10,000 nM; last figure of the line = mean of the 4 before it; read-out: 5-HT7A, PDSP raw data, mean
# T1 construct: purchased NIMH Psychoactive Drug Screening Program (PDSP)
# Method: (§1) To determine if any off-target receptor-binding effects are present, all the novel ligands were sent to the National Institute of Mental Health (NIMH), Psychoactive Drug Screening Program (PDSP). The ligands were screened over a panel of 47 receptors, ion channels, and transporters to determine any other possible interactions with […]. The hERG-binding was also determined. […] No binding of the test compounds to calcium channels was observed. […] It is necessary to screen the compounds for hERG-binding during the early process of drug discovery. The unintentional binding of many drugs to hERG can cause blockade of hERG K+ channels in the heart, which can cause many side effects including cardiac arrhythmias and sudden death. […] All of the α5 imidazodiazepines were tested for hERG-binding.
# (§2) The NIMH PDSP assay protocol book [https://kidbdev.med.unc.edu/databases/PDSP%20Protocols%20II%202013-03-28.pdf accessed on 23 April 2023]. describes the protocols for primary and secondary radio-ligand binding assays. These assays were carried out in a final volume of 125 µL per well in the appropriate binding buffer.
# (§3) The binding of a ligand to a receptor, ion channel, or transporter was determined in the […] of 10 µM of the appropriate reference compound. […] Plates were incubated in the dark for 90 min at rt, and the reactions were stopped by vacuum filtration onto 0.3% polyethyleneimine (PEI) soaked 96-well filter mats using a 96-well Filtermateharvester. This was followed by three washes with cold PBS buffer. Radioactivity was then counted on a Microbeta counter. Nonlinear regression was used to analyze the data with N = 6 replicates.
# Alpha2B = target: T2, Alpha2B (Homo sapiens, UniProt P18089); assay: PDSP primary binding Alpha2B; conditions: 1.5 h; primary binding, 10,000 nM; last figure of the line = mean of the 4 before it; read-out: Alpha2B, PDSP raw data, mean
# T2 construct: purchased NIMH Psychoactive Drug Screening Program (PDSP)
# T2 sequence (P18089 1-450): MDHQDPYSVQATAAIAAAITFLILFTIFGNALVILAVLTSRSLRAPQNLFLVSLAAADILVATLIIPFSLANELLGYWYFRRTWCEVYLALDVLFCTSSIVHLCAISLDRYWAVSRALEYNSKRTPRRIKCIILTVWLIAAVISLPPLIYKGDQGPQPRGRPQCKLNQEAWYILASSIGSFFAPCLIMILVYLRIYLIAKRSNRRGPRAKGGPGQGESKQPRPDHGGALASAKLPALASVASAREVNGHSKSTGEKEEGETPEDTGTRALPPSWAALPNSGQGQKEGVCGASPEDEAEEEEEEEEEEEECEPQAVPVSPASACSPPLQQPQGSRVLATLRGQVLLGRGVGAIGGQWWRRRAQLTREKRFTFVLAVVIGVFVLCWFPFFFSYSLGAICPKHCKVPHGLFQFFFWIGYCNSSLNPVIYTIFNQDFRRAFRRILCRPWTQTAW
# Method: as §1, §2, §3
# MOR = target: T3, MOR (Homo sapiens, UniProt P35372); assay: PDSP radioligand binding at MOR; conditions: 1.5 h
# T3 construct: purchased NIMH Psychoactive Drug Screening Program (PDSP)
# Excerpt: Opioid receptors are a family of inhibitory G-coupled protein receptors where opioids act as the ligand. The kappa opioid receptors (KOR), µ and δ opioid receptors (MOR and DOR), and nociception opioid receptor (NOP) fall under the family of opioids receptors. It has been reported that oxadiazole imidazodiazepines can mediate analgesic and anti-inflammatory properties mediated also by the κ opioid receptor (KOR). The binding at KOR is usually silent. The affinities of the test compounds for KOR, DOR, and MOR were determined using radioligand binding assays at a screening concentration of 10,000 nM in collaboration with the National Institute of Mental Health’s Psychoactive Drug Screening Program (PDSP), as mentioned before. Concentration-dependent experiments were conducted to determine Ki values for the compounds that exceeded more than 50% radioligand displacement in primary binding assays.
# as §2, §3
# 5-HT2A = target: T4, 5-HT2A (Homo sapiens, UniProt P28223); assay: PDSP primary binding 5-HT2A; conditions: 1.5 h; primary binding, 10,000 nM; last figure of the line = mean of the 4 before it; read-out: 5-HT2A, PDSP raw data, mean
# T4 construct: purchased NIMH Psychoactive Drug Screening Program (PDSP)
# Method: as §1, §2, §3
# Beta2 = target: T5, Beta2 (Homo sapiens, UniProt P07550); assay: PDSP primary binding Beta2; conditions: 1.5 h; primary binding, 10,000 nM; last figure of the line = mean of the 4 before it; read-out: Beta2, PDSP raw data, mean
# T5 construct: purchased NIMH Psychoactive Drug Screening Program (PDSP)
# Method: as §1, §2, §3
# Alpha2C = target: T6, Alpha2C (Homo sapiens, UniProt P18825); assay: PDSP primary binding Alpha2C; conditions: 1.5 h; primary binding, 10,000 nM; last figure of the line = mean of the 4 before it; read-out: Alpha2C, PDSP raw data, mean
# T6 construct: purchased NIMH Psychoactive Drug Screening Program (PDSP)
# T6 sequence (P18825 1-462): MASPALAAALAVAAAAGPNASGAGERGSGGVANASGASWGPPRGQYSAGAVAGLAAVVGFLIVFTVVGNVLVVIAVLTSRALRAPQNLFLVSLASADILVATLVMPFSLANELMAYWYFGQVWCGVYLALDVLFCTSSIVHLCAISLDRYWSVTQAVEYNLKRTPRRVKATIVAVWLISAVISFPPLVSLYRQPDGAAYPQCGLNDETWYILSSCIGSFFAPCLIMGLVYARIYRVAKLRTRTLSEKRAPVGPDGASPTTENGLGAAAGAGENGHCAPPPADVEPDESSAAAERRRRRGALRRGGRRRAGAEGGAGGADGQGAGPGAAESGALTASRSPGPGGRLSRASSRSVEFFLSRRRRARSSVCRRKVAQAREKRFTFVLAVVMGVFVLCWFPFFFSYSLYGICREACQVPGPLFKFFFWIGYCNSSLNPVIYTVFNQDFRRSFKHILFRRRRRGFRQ
# Method: as §1, §2, §3
# Alpha4Beta2 (Rat Brain) = target: T7, Alpha4Beta2 (Rat Brain) (Rattus norvegicus, UniProt P09483+P12390); assay: PDSP primary binding Alpha4Beta2 (Rat Brain); conditions: primary binding, 10,000 nM; last figure of the line = mean of the 4 before it; read-out: Alpha4Beta2 (Rat Brain), PDSP raw data, mean
# T7 construct: purchased NIMH Psychoactive Drug Screening Program (PDSP)
# Method: as §1, §2, §3
# [1] = at 10,000 nM, N = 5, [3H]-DAMGO 1.20 nM, read-out: Primary Binding %MOR
# [2] = primary binding, 10,000 nM, last figure of the line = mean of the 4 before it, read-out: MOR, PDSP raw data, mean
# T3 sequence (P35372 whole entry): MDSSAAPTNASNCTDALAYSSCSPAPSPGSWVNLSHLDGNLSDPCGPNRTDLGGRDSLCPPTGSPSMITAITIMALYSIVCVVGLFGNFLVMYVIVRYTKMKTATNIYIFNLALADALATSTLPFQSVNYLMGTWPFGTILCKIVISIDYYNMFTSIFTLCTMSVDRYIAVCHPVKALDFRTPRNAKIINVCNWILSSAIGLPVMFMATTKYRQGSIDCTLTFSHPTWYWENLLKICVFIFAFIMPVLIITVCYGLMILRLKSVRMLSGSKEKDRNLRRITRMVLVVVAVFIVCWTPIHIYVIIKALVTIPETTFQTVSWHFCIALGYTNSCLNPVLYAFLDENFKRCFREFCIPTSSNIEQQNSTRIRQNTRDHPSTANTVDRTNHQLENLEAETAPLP
# T7 sequence (P09483 31-630): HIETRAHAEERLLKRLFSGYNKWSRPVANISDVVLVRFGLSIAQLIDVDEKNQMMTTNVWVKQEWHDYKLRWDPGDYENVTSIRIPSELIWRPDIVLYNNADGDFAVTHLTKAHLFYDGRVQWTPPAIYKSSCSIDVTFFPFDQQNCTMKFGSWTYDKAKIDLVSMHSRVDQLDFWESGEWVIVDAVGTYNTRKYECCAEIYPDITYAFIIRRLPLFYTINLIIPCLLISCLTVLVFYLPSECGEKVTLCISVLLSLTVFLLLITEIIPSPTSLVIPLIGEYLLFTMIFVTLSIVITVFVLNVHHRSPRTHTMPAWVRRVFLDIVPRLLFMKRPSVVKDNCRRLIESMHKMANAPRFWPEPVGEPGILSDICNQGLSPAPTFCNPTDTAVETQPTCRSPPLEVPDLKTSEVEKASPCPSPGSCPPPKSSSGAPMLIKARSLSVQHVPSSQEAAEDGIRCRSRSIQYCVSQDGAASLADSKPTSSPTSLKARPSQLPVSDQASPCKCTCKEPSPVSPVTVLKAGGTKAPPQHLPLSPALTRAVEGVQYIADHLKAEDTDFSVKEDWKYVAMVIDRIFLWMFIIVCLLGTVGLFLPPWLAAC
# T7 sequence (P12390 25-500): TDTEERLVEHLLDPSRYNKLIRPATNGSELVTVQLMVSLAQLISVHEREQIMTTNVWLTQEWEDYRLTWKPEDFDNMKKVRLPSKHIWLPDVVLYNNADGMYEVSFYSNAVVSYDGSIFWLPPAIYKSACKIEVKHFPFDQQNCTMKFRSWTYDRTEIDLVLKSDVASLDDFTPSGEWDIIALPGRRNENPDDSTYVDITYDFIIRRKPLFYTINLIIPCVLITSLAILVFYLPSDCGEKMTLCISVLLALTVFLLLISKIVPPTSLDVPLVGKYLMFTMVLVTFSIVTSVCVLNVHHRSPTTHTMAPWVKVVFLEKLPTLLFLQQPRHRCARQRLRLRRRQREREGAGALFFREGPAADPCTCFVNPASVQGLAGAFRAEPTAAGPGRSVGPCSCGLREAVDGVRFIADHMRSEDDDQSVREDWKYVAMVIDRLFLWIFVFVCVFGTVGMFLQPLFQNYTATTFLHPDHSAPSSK
# T5 sequence (P07550 whole entry): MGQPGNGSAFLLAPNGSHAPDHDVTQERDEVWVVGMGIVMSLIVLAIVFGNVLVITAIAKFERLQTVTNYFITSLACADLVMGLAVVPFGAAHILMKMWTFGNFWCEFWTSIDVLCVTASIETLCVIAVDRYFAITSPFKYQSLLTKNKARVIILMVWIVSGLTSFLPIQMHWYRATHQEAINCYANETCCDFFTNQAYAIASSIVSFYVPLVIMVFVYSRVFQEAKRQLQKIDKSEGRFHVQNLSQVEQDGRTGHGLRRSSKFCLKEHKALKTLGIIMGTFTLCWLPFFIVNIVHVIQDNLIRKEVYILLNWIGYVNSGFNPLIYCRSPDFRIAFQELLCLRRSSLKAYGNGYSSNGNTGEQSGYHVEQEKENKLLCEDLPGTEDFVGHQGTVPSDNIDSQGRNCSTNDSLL
# T1 sequence (P34969 1-445 isoform P34969-2): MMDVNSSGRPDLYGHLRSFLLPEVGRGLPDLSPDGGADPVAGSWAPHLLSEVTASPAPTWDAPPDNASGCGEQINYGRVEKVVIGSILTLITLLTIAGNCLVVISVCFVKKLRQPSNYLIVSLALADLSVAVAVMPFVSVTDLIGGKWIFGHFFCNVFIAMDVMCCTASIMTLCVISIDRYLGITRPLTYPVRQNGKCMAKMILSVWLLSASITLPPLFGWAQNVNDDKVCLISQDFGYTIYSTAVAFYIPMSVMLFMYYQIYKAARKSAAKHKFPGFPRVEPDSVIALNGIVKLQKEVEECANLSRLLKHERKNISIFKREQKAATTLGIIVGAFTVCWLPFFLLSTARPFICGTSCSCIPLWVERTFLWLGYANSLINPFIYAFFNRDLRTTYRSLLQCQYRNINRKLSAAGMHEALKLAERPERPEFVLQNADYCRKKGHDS
# T4 sequence (P28223 whole entry): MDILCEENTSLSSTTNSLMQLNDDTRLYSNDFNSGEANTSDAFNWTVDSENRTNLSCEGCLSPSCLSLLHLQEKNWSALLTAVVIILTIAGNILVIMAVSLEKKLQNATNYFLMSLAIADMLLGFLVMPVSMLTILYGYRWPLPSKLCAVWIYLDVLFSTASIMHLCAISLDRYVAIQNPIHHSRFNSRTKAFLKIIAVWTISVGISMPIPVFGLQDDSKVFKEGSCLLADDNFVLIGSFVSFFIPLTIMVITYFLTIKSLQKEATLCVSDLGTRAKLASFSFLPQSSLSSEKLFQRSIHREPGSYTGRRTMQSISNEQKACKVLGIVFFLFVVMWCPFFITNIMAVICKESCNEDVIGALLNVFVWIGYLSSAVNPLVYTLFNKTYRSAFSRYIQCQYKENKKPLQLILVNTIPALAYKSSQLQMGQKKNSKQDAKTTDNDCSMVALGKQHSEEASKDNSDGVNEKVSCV
SMILES,inhibition at 10 µM (5-HT7A),inhibition at 10 µM (Alpha2B),inhibition at 10 µM (MOR; [1]),inhibition at 10 µM (MOR; [2]),inhibition at 10 µM (5-HT2A),inhibition at 10 µM (Beta2),inhibition at 10 µM (Alpha2C),inhibition at 10 µM (Alpha4Beta2 (Rat Brain))
"C[C@H]1N=C(c2ccccc2F)c2cc(-c3ccccc3)ccc2-n2cnc(C(=O)N(C)C)c21 [Compound 5, (R)-6-(2′-Fluorophenyl)-N,N,4-trimethyl-8-phenyl-4H-benzo[f]imidazo[1,5-a][1,4]diazepine-3-carboxamide]",4.31%,68.9%,-11.2 ± 5.72%,-11.2%,10.7%,-0.87%,12.9%,-5.7%
"C#Cc1ccc2c(c1)C(c1ccccc1Cl)=N[C@H](C)c1c(C(=O)NC)ncn1-2 [Compound 21, (R)-6-(2′-Chlorophenyl)-8-ethynyl-N,4-dimethyl-4H-benzo[f]imidazo[1,5-a][1,4]diazepine-3-carboxamide]",-12.3%,-2.45%,-3.57 ± 7.68%,-3.57%,-7.9%,-0.28%,-1.39%,0.7%
"C#Cc1ccc2c(c1)C(c1ccccn1)=N[C@@H](C)c1c(C(=O)NC)ncn1-2 [Compound 23, (S)-8-Ethynyl-N,4-dimethyl-6-(pyridin-2′-yl)-4H-benzo[f]imidazo[1,5-a][1,4]diazepine-3-carboxamide]",-13.5%,4.64%,5.24 ± 10.7%,5.24%,-0.6%,-5.89%,-0.12%,2.71%
C#Cc1ccc2c(c1)C(c1ccccc1Cl)=N[C@H](C)c1c(C(=O)N(C)CC)ncn1-2 [Compound 29],-2.22%,7.23%,7.31 ± 9.54%,7.31%,-3.89%,-7.07%,19.9%,0.03%
"C#Cc1ccc2c(c1)C(c1ccccn1)=N[C@@H](C)c1c(C(=O)N(C)C)ncn1-2 [Compound 31, (S)-8-Ethynyl-N,N,4-trimethyl-6-(pyridin-2′-yl)-4H-benzo[f]imidazo[1,5-a][1,4]diazepine-3-carboxamide]",-9.64%,-0.93%,4.55 ± 12.5%,4.55%,-13.1%,-0.05%,7.52%,2.48%
"C#Cc1ccc2c(c1)C(c1ccccc1F)=N[C@H](C)c1c(C(=S)N(C)C)ncn1-2 [Compound 33, (R)-8-Ethynyl-6-(2′-fluorophenyl)-N,N,4-trimethyl-4H-benzo[f]imidazo[1,5-a][1,4]diazepine-3-carbothioamide]",4.31%,68.9%,-2.4 ± 5.72%,-11.2%,10.7%,-0.87%,12.9%,-5.7%
"CCc1noc(-c2ncn3c2[C@@H](C)N=C(c2ccccc2F)c2cc(-c4ccccc4)ccc2-3)n1 [Compound 35, (R)-3-Ethyl-5-(6-(2′-fluorophenyl)-4-methyl-8-phenyl-4H-benzo[f]imidazo[1,5-a][1,4]diazepin-3-yl)-1,2,4-oxadiazole]",8.12%,45.7%,14.8 ± 6.32%,14.8%,32.3%,0.34%,31.6%,-11.6%
"CCc1noc(-c2ncn3c2[C@@H](C)N=C(c2ccccc2F)c2cc(Cl)ccc2-3)n1 [Compound 36, (R)-5-(8-Chloro-6-(2′-fluorophenyl)-4-methyl-4H-benzo[f]imidazo[1,5-a][1,4]diazepin-3-yl)-3-ethyl-1,2,4-oxadiazole]",1.53%,16.6%,19.2 ± 5.47%,19.2%,11.1%,2.67%,1.43%,3.25%
"CC(C)c1noc(-c2ncn3c2[C@@H](C)N=C(c2ccccc2F)c2cc(Cl)ccc2-3)n1 [Compound 37, (R)-5-(8-Chloro-6-(2′-fluorophenyl)-4-methyl-4H-benzo[f]imidazo[1,5-a][1,4]diazepin-3-yl)-3-isopropyl-1,2,4-oxadiazole]",12.1%,18.5%,48.6 ± 4.17%,48.6%,14.1%,6.55%,2.74%,-0.61%
"C[C@H]1N=C(c2ccccc2F)c2cc(Cl)ccc2-n2cnc(-c3nc(C4CC4)no3)c21 [Compound 38, (R)-5-(8-Chloro-6-(2′-fluorophenyl)-4-methyl-4H-benzo[f]imidazo[1,5-a][1,4]diazepin-3-yl)-3-cyclopropyl-1,2,4-oxadiazole]",11.9%,17.6%,30.2 ± 6.46%,30.2%,11.6%,1.75%,9.93%,0.48%
"CCc1noc(-c2ncn3c2CN=C(c2ccccc2F)c2cc(C4CC4)ccc2-3)n1 [Compound 44, 5-(8-Cyclopropyl-6-(2′-fluorophenyl)-4H-benzo[f]imidazo[1,5-a][1,4]diazepin-3-yl)-3-ethyl-1,2,4-oxadiazole]",9.22%,36.6%,26.4 ± 6.01%,26.4%,21.2%,3.97%,15.7%,-0.99%
